In PubChem BioAssay AID1996:
Values after ≈ are worked out from the molar mass of the structure shown.

Details: buffer; pH 7.4; 200.0 µM

Compound | solubility kinetic
O=C(NCCCN1CCCC1=O)Nc1ccccc1Cl | > 44.4 µg/mL
CCC(=O)Nc1cccc(NC(=O)c2ccc(C)cc2Cl)c1 | 0.6 µg/mL (≈ 1.89 µM)
Cc1ccc(S(=O)(=O)N(C)c2ccc(OCC(=O)OCc3ccc(C#N)cc3)cc2)cc1 | 8.4 µg/mL (≈ 18.6 µM)
CCCc1nc(-c2cc3cc(C)ccc3[nH]c2=O)no1 | 15 µg/mL (≈ 55.7 µM)
CC1CN(C(=O)c2cc([N+](=O)[O-])cc([N+](=O)[O-])c2)CC(C)O1 (stereo not given) | > 46.4 µg/mL
COCC(C)NC(=O)COc1nncc2ccccc12 (stereo not given) | > 41.3 µg/mL
COc1ccc2oc(C(=O)OCC(=O)NC(=O)c3ccccc3)c(C)c2c1 | 4.5 µg/mL (≈ 12.2 µM)
Cc1ccc(NC(=O)C2COc3ccccc3O2)c(C)c1 (stereo not given) | 33 µg/mL (≈ 116 µM)
CSc1ccccc1C(=O)Nc1ccc2c(c1)CCC2 | 16.8 µg/mL (≈ 59.3 µM)
COC(=O)CCN(C(=O)c1ccc(Cl)c([N+](=O)[O-])c1)c1ccccn1 | > 54.6 µg/mL
CCC1(OC(=O)c2ccccc2)CC(C)N(C)CC1C.Cl (stereo not given) | 30.3 µg/mL
COC(=O)c1c(NC(=O)C(C)C)sc(C(=O)N2CCOCC2)c1C | > 53.2 µg/mL
O=CNc1ccc(OC(=O)c2cncc(Br)c2)cc1 | 15.4 µg/mL (≈ 48 µM)
Cc1ccc(CNC(=O)c2c(-c3ccccc3)noc2C)cc1 | 2.1 µg/mL (≈ 6.85 µM)
CC(=O)Nc1ccc(S(=O)(=O)N[C@@H](C)C(=O)OCC(=O)c2ccc[nH]2)cc1 | 42.2 µg/mL (≈ 107 µM)
O=c1c2cc3c(nc2[nH]c(=S)n1-c1ccccc1)CCCC3 | 0.5 µg/mL (≈ 1.62 µM)
COc1ccccc1-c1ccc(/C=N/O)o1 | 3.9 µg/mL (≈ 18 µM)
COc1ccc(OCC(=O)c2c[nH]c3ccccc23)cc1 | < 0.6 µg/mL
O=C1CN(C(=O)c2ccccc2C(=O)O)c2ccccc2N1 | > 44.4 µg/mL
CCOc1ccccc1NC(=O)c1ccccc1NC(=O)c1ccco1 | < 0.4 µg/mL
Cc1cc(C)c(C#N)c(N)n1 | > 22.1 µg/mL
COc1ccc(/C=C/C(=O)OCC(=O)NCCCc2ccccc2)cc1OC | 20 µg/mL (≈ 52.2 µM)
COc1ccc(OCC(=O)N2c3ccccc3CC2C)c([N+](=O)[O-])c1 (stereo not given) | 17.3 µg/mL (≈ 50.5 µM)
Cc1ccc(S(=O)(=O)N2CCC(N3CCC(C)CC3)CC2)cc1 | > 50.5 µg/mL
COc1cc(Cl)c(C)cc1NC(=O)Cc1cccs1 | 1 µg/mL (≈ 3.38 µM)

The remaining lines, values ahead:

solubility kinetic | Compound
> 62.9 µg/mL | COc1ccc(OC)c(S(=O)(=O)N2CCCC(C(=O)NCc3ccccn3)C2)c1 (stereo not given)
34.3 µg/mL (≈ 137 µM) | Nc1ncnc(Oc2ccccc2F)c1[N+](=O)[O-]
14.1 µg/mL (≈ 36.2 µM) | O=C(/C=C/c1ccccc1)N(Cc1cccc(Cl)c1)C1CCS(=O)(=O)C1 (stereo not given)
13.4 µg/mL (≈ 44.3 µM) | CCCNC(=S)N1CCCC(c2nc3ccccc3[nH]2)C1 (stereo not given)
> 61.3 µg/mL | Cc1ccnc(SCC(=O)Nc2cccc(S(=O)(=O)N3CCOCC3)c2)n1
13.5 µg/mL (≈ 32.7 µM) | COc1cc(C(=O)Nc2cccc(NC(=O)c3cccs3)c2)cc(OC)c1OC
> 44.8 µg/mL | COc1ccc2[nH]c(C(=O)NCCCn3ccnc3)cc2c1
> 41.7 µg/mL | O=C(NCc1ccco1)C1Cc2cc(Cl)ccc2O1 (stereo not given)
2 µg/mL (≈ 5.66 µM) | COc1cccc(C(=O)Nc2ccc(NC(=O)C3CCCCC3)nc2)c1
> 48.1 µg/mL | COc1ccccc1OCCNC(=O)C1CCN(C(C)=O)CC1
42.2 µg/mL (≈ 123 µM) | CC(=O)c1ccc(N=C2SCCCN2C(=O)C2CCCCC2)cc1
39.4 µg/mL (≈ 125 µM) | Cc1ccc([N+](=O)[O-])cc1NC(=S)NCCc1ccccc1
4.7 µg/mL (≈ 13.8 µM) | COc1ccc(NC(=S)N2CCC(Cc3ccccc3)CC2)cc1
< 0.3 µg/mL | O=C(Nc1ccc(F)c(Cl)c1)c1cc(-c2ccco2)on1
> 36.2 µg/mL | Cc1ccc(C)c(NCc2ccccc2CO)c1
> 55.7 µg/mL | COc1cccc(NC(=O)CN(C)CC(=O)Nc2ccc3c(c2)OCO3)c1
27.4 µg/mL (≈ 103 µM) | CC(C)NC(=S)N(CCc1ccncc1)C(C)C
> 46.4 µg/mL | O=S(=O)(NCc1ccc2c(c1)OCO2)c1cccc(F)c1

solubility kinetic | Compound
2.6 µg/mL (≈ 8.3 µM) | O=C(NC(=S)Nc1ccc(Br)cc1)C1CCC1
> 57.6 µg/mL | Cc1c(NC(=O)CSCc2ccc(Cl)cc2Cl)cccc1C(=O)O
< 0.7 µg/mL | O=C(NCC1CCCCC1)c1cccc(-c2ccc(O)cc2)c1
2.9 µg/mL (≈ 12.1 µM) | Cc1ccc2oc(=O)n(Cc3ccccc3)c2c1
> 39.4 µg/mL | Cc1cccc(C)c1NC(=O)N1CC(C)OC(C)C1 (stereo not given)
28.5 µg/mL (≈ 101 µM) | CC(C)c1ccc(Nc2nc(Cl)nc(Cl)n2)cc1
> 48.2 µg/mL | COc1ccc(C(=O)Nc2cc(C)nn2-c2ccc(C)cc2)cc1
20.6 µg/mL (≈ 72.7 µM) | O=[N+]([O-])c1sccc1CS(=O)(=O)c1ccccc1
40 µg/mL (≈ 124 µM) | COc1ccc(C2c3sc(=O)[nH]c3SCC2C(N)=O)cc1 (stereo not given)
44.6 µg/mL (≈ 143 µM) | CC(=O)C(C)n1cnc2scc(-c3ccc(C)cc3)c2c1=O (stereo not given)
27.7 µg/mL (≈ 124 µM) | O=c1onc(-c2ccccc2)c2ccccc12
45.6 µg/mL (≈ 138 µM) | COC(=O)c1ccc(S(=O)(=O)N2CCN(CCO)CC2)n1C
15 µg/mL (≈ 50.7 µM) | O=S(=O)(c1cccc2cccc(Cl)c12)N1CCCC1
49.6 µg/mL (≈ 147 µM) | CCS(=O)(=O)N1CCC(N2CCN(c3ccccc3)CC2)CC1
50.1 µg/mL (≈ 149 µM) | COc1ccc(NC(=O)COC(=O)Cc2ccsc2)c(OC)c1
42.4 µg/mL (≈ 131 µM) | CC(C)(C)OC(=O)N1CCC(CNC(=O)c2cccs2)CC1
1.8 µg/mL (≈ 5.41 µM) | Cc1ccc(S(=O)(=O)N2CCN(c3ncccn3)CC2)c(C)c1
